Assay results as given in patent US9765063B2, “Amido compounds as RORγt modulators and uses thereof” (New York University, priority 2011, dated 2017).
Entries after “also recorded” stand apart in the source; their conditions may differ. Read-outs that look alike come from different tables or passages of the source.

What was measured:
RORγt [1] = biological target: T1, RORγt (Mus musculus, UniProt P51450); test: RORγt S2 cell reporter assay (Gal4-RORγt fusion, UAS-luciferase); format: cell-based
T1 construct: expressed in transfected cells; the other entry of the earlier key: GAL4 (P04386, Regulatory protein GAL4)
Text: Methods: The Drosophila S2 cell line was originally purchased from Invitrogen and was maintained in Schneider's medium supplemented with 10% heat-inactivated bovine fetal calf serum and antibiotics (Invitrogen). […] The resulting chimeric gene was subcloned into the copper inducible pMT/V5-His A vector (available from Invitrogen).
Renilla luciferase construct under the polIII promoter was obtained from Dr. Dasgupta's laboratory (NYU medical center). In order to generate stable cell lines, cells were co-transfected with pMT-G4DBD-RORγt, pMT-G4DBD-RORα, pMT-G4DBD-DHR3, or pMT-G4DBDVP16 and pHygro plasmids (Invitrogen) and screened for resistant colonies in the presence of hygromycin (0.3 mg/mL). […] Using similar methods, stable clones with genomic integration of the luciferase reporters and other reporters were generated such as pMT-RORα_luc, pMT-DHR3_luc, or pMT-VP16_luc.
Methods: 600 G4DBD-RORγ/γt-luc reporter (#25) or G4DBD-VP16-luc reporter cells were distributed into each well of 1,536-well white bottom plates in 4 μl S2 cell culture volume containing hygromicin (300 μg/ml) and puromycin (2 μg/ml). […] After one-hour incubation, 1 of culture medium solution containing copper sulfate (to final 0.7 mM) and 10 μM RORγ/γt antagonists were added to each well. After 20-hour incubation at ambient temperature, 1.5 μl firefly luciferase detection mix was added and the luciferase activities were measured in 10 min. ViewLux luminometers were used for measuring luciferase signal.
A cell-based reporter assay was used to detect RORγt-mediated activity. This assay, called RORγt employed Drosophila Schneider cells that were stably transfected with two vectors: a gene expressing a fusion of the Gal4 DNA binding domain and RORγt transactivation domain under the control of the metallothionine promoter and a Photinus luciferase reporter regulated by the Gal4 binding site enhancer, UAS. […] Cells (600/well) were dispensed into white solid 1536-well plates (Greiner) using a solenoid-based dispenser. Following transfer of […] compound or DMSO vehicle by a pin tool, the plates were incubated 1 hr at ambient temperature, and 1 uL/well copper sulfate (700 uM final concentration) was added. The plates were centrifuged 15 s at 1000 RPM and incubated 20 hr at ambient temperature. After addition of 1.5 uL Photinus luciferase detection reagent, the plates were incubated 10 min at ambient temperature and then read by a ViewLux (Perkin Elmer) to detect luminescence. […] Efficacy is expressed as % of the maximal response of control inhibitor (Digoxin), set at 100%.

[2] = test system: mouse Th17 cell differentiation; test: Th17 assay: mouse Th17 polarization (IL-17a producing cells, FACS); format: cell-based
Procedure: (§1) Percentage of DMSO treated IL-17a producing cells was set at 100. Naive mouse CD4 T cells (CD25^−, CD62L^+, and CD44^low-int) were sorted and cultured with CD3/CD28 stimulatory antibodies in the presence of TGFβ (0.1 ng/ml) and IL6 (20 ng/ml). Compounds were added on Day 1 and cells were analyzed on Day 4. For intracellular cytokine staining, cells were incubated for 5 h with phorbol ester (50 ng/ml; Sigma), ionomycin (500 ng/ml; Sigma) and GolgiStop (BD). When needed, surfaces were stained by incubation for 15 min on ice with PECy7-conjugated CD4 (BD Biosciences). The Cytofix/Cytoperm buffer set (BD) was used for intracellular staining. Cells were fixed and made permeable for 30 min on ice and were stained for 30 min on ice in permeabilization buffer with Alexa647-conjugated anti-IL17a (eBioscience) and PE-conjugated anti-IFNg (eBioscience). An LSR II (BD Biosciences) and FlowJo software (Tree Star) were used for flow cytometry. RORg IC50 value acquired from the S2 cell reporter assay is listed for comparison.
as §1, with “With respect to the methodological details pertaining to FIG. 1, naive” for “Percentage of DMSO treated IL-17a producing cells was set at 100. Naive mouse”, “(BD).” for “(BD). When needed, surfaces were stained by incubation for 15 min on ice with PECy7-conjugated CD4 (BD Biosciences).”, “anti-IFNγ” for “anti-IFNg”, “cytometry.” for “cytometry. RORg IC50 value acquired from the S2 cell reporter assay is listed for comparison.”

RORγt [3] = test: RORγt overexpression dependent IL17a production in human CD4 T cells (FIG. 3); format: cell-based; conditions: FIG. 3, FACS, 0.5 μM; listed as NCGC00242624
Procedure: (§2) Briefly, CD3+ CD4+ CD45RA+ naive human T cells were isolated from peripheral blood derived from healthy donors. The naive T cells were cultured in XVIVO-20 (Lonza) medium for 7 days in the presence of IL2 and stimulatory CD3 and CD28 antibodies. Cells were infected with lentivirus encoding human RORα or RORγ and compound or DMSO was added on day 2. FACS plot analysis is shown after gating on GFP expressing (virus infected) cells.

RORα = RORα overexpression dependent IL17a production in human CD4 T cells (FIG. 3); format: cell-based; conditions: FIG. 3, FACS, 0.5 μM; listed as NCGC00242624
Procedure: as §2

[4] = Half-life in Human Liver Microsomes (HLM); format: in vitro ADME
Procedure: Test compounds (1 μM) are incubated with 3.3 mM MgCl2 and 0.78 mg/mL HLM (HL101) in 100 mM potassium phosphate buffer (pH 7.4) at 37° C. on the 96-deep well plate. The reaction mixture is split into two groups, a non-P450 and a P450 group. NADPH is only added to the reaction mixture of the P450 group. An aliquot of samples of the P450 group is collected at 0, 10, 30, and 60 min time points, where the 0 min time point indicated the lime at which NADPH is added into the reaction mixture of the P450 group. […] Collected aliquots are extracted with acetonitrile solution containing an internal standard. […] The compound concentration in supernatant is measured by LC/MS/MS system.
The half-life value is obtained by plotting the natural logarithm of the peak area ratio of compounds/internal standard versus time. The slope of the line of best fit through the points yields the rate of metabolism (k). This is converted to a half-life value using following equations: Half-life=ln 2/k

T1 sequence (P51450 with tags, fused parts or gaps): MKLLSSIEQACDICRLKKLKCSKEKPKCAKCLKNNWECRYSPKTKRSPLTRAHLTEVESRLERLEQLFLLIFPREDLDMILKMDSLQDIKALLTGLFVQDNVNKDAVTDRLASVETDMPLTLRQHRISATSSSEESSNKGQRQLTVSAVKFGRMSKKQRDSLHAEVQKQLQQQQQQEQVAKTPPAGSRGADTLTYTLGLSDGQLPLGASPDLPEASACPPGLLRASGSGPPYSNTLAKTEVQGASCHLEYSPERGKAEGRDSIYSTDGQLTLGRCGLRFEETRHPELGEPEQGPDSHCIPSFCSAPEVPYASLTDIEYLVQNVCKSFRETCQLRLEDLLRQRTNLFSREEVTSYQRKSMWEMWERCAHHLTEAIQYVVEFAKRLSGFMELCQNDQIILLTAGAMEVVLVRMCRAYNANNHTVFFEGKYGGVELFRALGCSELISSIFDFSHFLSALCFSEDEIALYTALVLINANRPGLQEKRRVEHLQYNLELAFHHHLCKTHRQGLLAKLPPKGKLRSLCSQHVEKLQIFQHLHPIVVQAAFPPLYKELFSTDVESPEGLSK

IC50 (RORγt [1]; Table 1, Drosophila S2 cells, luciferase reporter, read-out: IC50): 1 to 10 µM | IC50 (RORγt [1]; Table 2, from the S2 cell reporter assay, listed for comparison, read-out: S2 cell RORg IC50): < 1 µM | IC50 ([2]; naive mouse CD4 T cells, TGFβ and IL6, compounds added Day 1, analyzed Day 4, read-out: Th 17 IC50): 1 to 10 µM | % Remaining @ 60 min ([4]; 1 μM compound, 0.78 mg/mL HLM, 37° C., 60 min): 51.36% | half-life at 1 μM ([4]; human, human liver microsomes, pH 7.4, 1 μM compound, 0.78 mg/mL HLM, 37° C., Half-life=ln 2/k): 1.07 h | microsomal CLint at 1 μM ([4]; human, human liver microsomes, pH 7.4, 1 μM compound, 0.78 mg/mL HLM, 37° C., read-out: CLint (uM/Min/mg proteins)): 21.6 µL/min/mg
SMILES: COc1cc(O)c(C(CC(=O)N2CC(C)CC(C)C2)c2ccc(C(=O)O)cc2)c(OC)c1 (centres unmarked) [Compound 99, 4-(3-(3,5-Dimethylpiperidin-1-yl)-1-(2-hydroxy-4,6-dimethoxyphenyl)-3-oxopropyl)benzoic acid]
mouse Th17 cell differentiation, as measured by IL17a production ([2]; FIG. 1, FACS, at the indicated concentrations, listed as NCGC00242624): suppresses mouse Th17 cell differentiation with similar activity to NCGC00238427; also recorded: suppress mouse Th17 cell differentiation | RORγt overexpression dependent IL17a production in human CD4 T cells (RORγt [3]): selectively inhibit RORγt dependent; also recorded: selectively inhibits RORγt overexpression dependent IL17a production | RORα overexpression dependent IL17a production in human CD4 T cells (RORα): unaffected | stability compared with compounds 150 and 157 ([4]; HLM, Table 3 data): better or improved stability over the compounds with IDs 150 and 157 | stability compared with verapamil ([4]; HLM, Table 3 data): improved stability with respect to verapamil
